Data taken from patent US20220106301A1, “ACETAMIDO-PHENYLBENZAMIDE DERIVATIVES AND METHODS OF USING THE SAME” (Athenex, Inc., priority 2020, published 2022).

Biological target: CYP3A4 (Homo sapiens, UniProt P08684)
Test: Determination of CYP3A4 inhibitory activity (human liver microsome, Luciferin-IPA)
Conditions: CYP3A4 IC50 (nM), 37° C. 11 minutes
Protocol: The standard final Compound concentrations were 37, 111, 333, 1000, and 3000 nM. 12.5 μL of the Compound dilutions were transferred to a white 96-well plate. […] 25 μL of the buffer was added to each well. The plates were incubated at 37° C. for 11 minutes. 50 μL of luciferin detection reagent (Promega V9002) was added and the plates were incubated at room temperature for 5 minutes. The plate was read with a luminometer.
The dose-response curve and IC50 were obtained by fitting data to nonlinear regression model using GraphPad Prism software (v6.0).

Chain of CYP3A4 (P08684 whole entry): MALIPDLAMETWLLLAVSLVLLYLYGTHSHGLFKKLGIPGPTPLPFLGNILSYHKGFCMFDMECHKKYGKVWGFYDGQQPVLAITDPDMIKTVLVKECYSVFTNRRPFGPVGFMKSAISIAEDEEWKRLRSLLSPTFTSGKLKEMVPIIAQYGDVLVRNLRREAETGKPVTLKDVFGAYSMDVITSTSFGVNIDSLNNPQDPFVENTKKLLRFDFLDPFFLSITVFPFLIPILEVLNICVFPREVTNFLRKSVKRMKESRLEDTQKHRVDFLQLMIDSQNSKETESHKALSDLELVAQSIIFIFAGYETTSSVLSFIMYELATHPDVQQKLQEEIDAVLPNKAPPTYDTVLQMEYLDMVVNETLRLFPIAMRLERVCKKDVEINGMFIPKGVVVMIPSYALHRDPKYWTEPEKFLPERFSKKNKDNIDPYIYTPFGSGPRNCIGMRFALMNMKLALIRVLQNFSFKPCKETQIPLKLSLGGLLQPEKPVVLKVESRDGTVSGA

COCCOc1cncc(CN(CCc2ccc(NC(=O)c3cc(OC)c(OC)cc3NC(=O)c3cc(=O)c4ccccc4o3)cc2)Cc2ccc3c(cnn3C)c2)c1 [Compound 56]
IC50: 250 to 500 nM

COc1cc(NC(=O)c2cc(=O)c3ccccc3o2)c(C(=O)NCc2ccc(CN(Cc3ccc(-n4ccnc4)cc3)Cc3ccc4c(cnn4C)c3)cc2)cc1OC [Compound 237]
IC50: 100 to 250 nM

COc1cc(NC(=O)c2cc(=O)c3cc(C)ccc3o2)c(C(=O)Nc2ccc(CCN(Cc3cccnc3)Cc3ccc4c(cnn4C)c3)cc2)cc1OC [Compound 38]
IC50: 100 to 250 nM

COc1cc(NC(=O)c2cnc3ccccc3c2)c(C(=O)Nc2ccc(CCN(Cc3cccc(-n4ccnc4)c3)Cc3ccc4c(c3)c(C)nn4C)cc2)cc1OC [Compound 179]
IC50: 250 to 500 nM

CN(CCc1ccc(NC(=O)c2ccc(C(=O)OCc3cscn3)cc2NC(=O)c2cc(=O)c3ccccc3o2)cc1)Cc1ccc2c(cnn2C)c1 [Compound 280]
IC50: 100 to 250 nM

CCn1c2ccccc2c2cc(CN(CCc3ccc(NC(=O)c4cc(OC)c(OC)cc4NC(=O)c4cc(=O)c5ccccc5o4)cc3)Cc3cccc(-n4ccnc4)c3)ccc21 [Compound 212]
IC50: > 1000 nM

COc1cc(NC(=O)c2cc(=O)c3ccccc3o2)c(C(=O)Nc2ccc(CCN(Cc3cccnc3)Cc3cnc(-c4ccccc4F)nc3)cc2)cc1OC [Compound 229]
IC50: 250 to 500 nM

Cn1ncc2cc(CN(CCc3ccc(NC(=O)c4ccc(C(=O)OCc5cccnc5)cc4NC(=O)c4cc(=O)c5ccccc5o4)cc3)Cc3ccc4c(cnn4C)c3)ccc21 [Compound 268]
IC50: > 1000 nM

COc1cncc(CN(CCc2ccc(NC(=O)c3cc(OC)c(OC)cc3NC(=O)c3cc(=O)c4ccccc4o3)cc2)Cc2ccc3c(c2)n(C)c(=O)n3C)c1 [Compound 69]
IC50: 100 to 250 nM

COc1cc(NC(=O)c2cc(=O)c3ccccc3o2)c(C(=O)Nc2ccc(CCN(Cc3cccnc3)Cc3cccc4cnn(C)c34)cc2)cc1OC [Compound 201]
IC50: 500 to 1000 nM

COc1cc(NC(=O)c2cc(=O)c3ccccc3o2)c(C(=O)Nc2ccc(CCN(Cc3cccc(-n4cnc(C)c4)c3)Cc3ccc4c(cnn4C)c3)cc2)cc1OC [Compound 23]
IC50: 250 to 500 nM

COc1cc(NC(=O)c2cc(=O)c3ccccc3o2)c(C(=O)Nc2ccc(CCN3CCc4ccncc4C3)cc2)cc1OC [Compound 78]
IC50: 500 to 1000 nM

CCN(CCc1ccc(NC(=O)c2cc(OC)c(OC)cc2NC(=O)c2cc(=O)c3ccccc3o2)cc1)Cc1ccc(-c2ccco2)cc1 [Compound 143]
IC50: > 1000 nM

CCN(CCc1ccc(NC(=O)c2cc(OC)c(OC)cc2NC(=O)c2cc(=O)c3ccccc3o2)cc1)Cc1cccc(-c2ccco2)c1 [Compound 141]
IC50: > 1000 nM

CCc1cn(-c2cccc(CN(C)CCc3ccc(NC(=O)c4cc(OC)c(OC)cc4NC(=O)c4cc(=O)c5ccccc5o4)cc3)c2)cn1 [Compound 105]
IC50: 100 to 250 nM

COc1cc(NC(=O)c2cc(=O)c3ccccc3o2)c(C(=O)Nc2ccc(CCN(Cc3cccc(-n4ccnc4)c3)Cc3ccc4nn(C)cc4c3)cc2)cc1OC [Compound 204]
IC50: 250 to 500 nM

COc1cc(NC(=O)c2cc(=O)c3ccccc3o2)c(C(=O)Nc2ccc(CCN(Cc3ccc4cnn(C)c4c3)Cc3ccc4cnn(C)c4c3)cc2)cc1OC [Compound 170]
IC50: > 1000 nM

COc1cncc(CN(Cc2ccc(CNC(=O)c3cc(OC)c(OC)cc3NC(=O)c3cc(=O)c4ccccc4o3)cc2)Cc2ccc3c(cnn3C)c2)c1 [Compound 235]
IC50: 100 to 250 nM

COC(=O)c1ccc(C(=O)Nc2ccc(CCN(Cc3cncc(OC)c3)Cc3ccc4c(cnn4C)c3)cc2)c(NC(=O)c2cc(=O)c3ccccc3[nH]2)c1 [Compound 79]
IC50: 100 to 250 nM

COc1cc(NC(=O)c2cc(=O)c3ccccc3o2)c(C(=O)Nc2ccc(CCNCc3cccnc3)cc2)cc1OC [Compound 214]
IC50: > 1000 nM

COc1cc(NC(=O)c2cc(=O)c3ccccc3o2)c(C(=O)Nc2ccc(CCN)cc2)cc1OC [Compound 215]
IC50: > 1000 nM

COc1cc(NC(=O)c2cc(=O)c3ccccc3o2)c(C(=O)Nc2ccc(CCN(Cc3cccnc3)Cc3ccc(C)c4ncccc34)cc2)cc1OC [Compound 250]
IC50: 100 to 250 nM

CCOc1cc(C(=O)Nc2ccc(CCN(C)Cc3ccc(-n4ccnc4)cc3)cc2)c(NC(=O)c2cc(=O)c3ccccc3o2)cc1OC [Compound 108]
IC50: 250 to 500 nM

COc1cc(NC(=O)c2cnc3ccccc3n2)c(C(=O)Nc2ccc(CCN(Cc3ccc4c(c3)n(C)c(=O)n4C)Cc3ccc4c(c3)n(C)c(=O)n4C)cc2)cc1OC [Compound 169]
IC50: > 1000 nM

CCN(CCc1ccc(NC(=O)c2cc(OC)c(OC)cc2NC(=O)c2cc(=O)c3ccccc3o2)cc1)Cc1ccc(OCCn2ccnc2)c(OC)c1 [Compound 134]
IC50: 100 to 250 nM

COc1cc(NC(=O)c2cc(=O)c3ccccc3o2)c(C(=O)NCc2ccc(CN(Cc3cccc(-c4cncs4)c3)Cc3ccc4c(cnn4C)c3)cc2)cc1OC [Compound 236]
IC50: > 1000 nM

COC(=O)c1ccc(C(=O)Nc2ccc(CCN(C)Cc3ccc4c(cnn4C)c3)cc2)c(NC(=O)c2ccccn2)c1 [Compound 277]
IC50: > 1000 nM

COc1cc(NC(=O)c2cc(=O)c3ccccc3o2)c(C(=O)Nc2ccc(CCN(Cc3ccc4c(cnn4C)c3)Cc3ccc[n+]([O-])c3)cc2)cc1OC [Compound 225]
IC50: > 1000 nM

CCN(CCc1ccc(NC(=O)c2cc(OC)c(OC)cc2NC(=O)c2cc(=O)c3ccccc3o2)cc1)Cc1cccn1Cc1cccnc1 [Compound 25]
IC50: 250 to 500 nM

COc1cc(NC(=O)c2cc(=O)c3ccccc3o2)c(C(=O)Nc2ccc(CCN(Cc3cccnc3)Cc3ccc4cnn(C)c4c3)cc2)cc1OC [Compound 32]
IC50: < 100 nM

COc1cc(NC(=O)c2cc(=O)c3ccccc3o2)c(C(=O)Nc2ccc(CCN(Cc3cccc(-c4nc(C)no4)c3)Cc3cncs3)cc2)cc1OC [Compound 202]
IC50: 500 to 1000 nM

COc1cc(NC(=O)c2cc(=O)c3ccccc3o2)c(C(=O)Nc2ccc(CCN(Cc3cccc(-n4ccnc4C)c3)Cc3ccc4c(cnn4C)c3)cc2)cc1OC [Compound 249]
IC50: > 1000 nM

CCN(CCc1ccc(NC(=O)c2cc(OC)c(OC)cc2NC(=O)c2cc(=O)c3ccccc3o2)cc1)Cc1ccc(OC)c(O)c1 [Compound 133]
IC50: > 1000 nM

COc1cc(NC(=O)c2cc(=O)c3ccccc3o2)c(C(=O)Nc2ccc(CCN(Cc3ccc4c(cnn4C)c3)Cc3ccc4c(cnn4C)c3)cc2)cc1OC [Compound 137]
IC50: > 1000 nM

COc1cc(NC(=O)c2cc(=O)c3ccccc3o2)c(C(=O)Nc2ccc(CCN(C)Cc3cnc(-n4ccnc4)nc3)cc2)cc1OC [Compound 126]
IC50: 500 to 1000 nM

COc1ccc(CN(CCc2ccc(NC(=O)c3cc(OC)c(OC)cc3NC(=O)c3cc(=O)c4ccccc4o3)cc2)Cc2cccc(-n3ccnc3)c2)cc1OC [Compound 27]
IC50: 100 to 250 nM

CCN(CCc1ccc(NC(=O)c2cc(OC)c(OC)cc2NC(=O)c2cc(=O)c3ccccc3o2)cc1)Cc1ccc2c(c1)CCO2 [Compound 162]
IC50: > 1000 nM

COc1cc(NC(=O)c2cc(=O)c3ccccc3o2)c(C(=O)Nc2ccc(CCN(Cc3cncc(O)c3)Cc3ccc4c(cnn4C)c3)cc2)cc1OC [Compound 223]
IC50: 100 to 250 nM

COc1cc(NC(=O)c2cc(=O)c3cc(C)cc(C)c3o2)c(C(=O)Nc2ccc(CCN(Cc3cccc(-n4ccnc4)c3)Cc3ccc4c(cnn4C)c3)cc2)cc1OC [Compound 197]
IC50: > 1000 nM

CCN(CCc1ccc(NC(=O)c2cc(OC)c(OC)cc2NC(=O)c2cc(=O)c3ccccc3o2)cc1)Cc1cccc(OC[C@@H]2CO[C@@](Cn3ccnc3)(c3ccc(Cl)cc3Cl)O2)c1 [Compound 127]
IC50: < 100 nM
